The source of these data is patent US20080288176A1 (priority 2005, published 2008).

The subject of data set [1] is male Wistar rats. The data set can be described thus: Gastric ulcer index after oral dosing. Conditions: for Ulcer Indices, Mean: oral gavage, naproxen 250 mg/kg or molar equivalent (ROF 250 mg/kg), 6 h after dosing, mean aggregate gastric ulcer length; for Ulcerogenicity (in words): oral, 6 h. The data set is classed as in vivo, rat. Here is the method:
(§1) Table 1 is a summary of the protocol for a study which was conducted in male Wistar rats weighing 275-300 grams. The animals were allowed to acclimatize for at least five days prior to the commencement of the study. The study protocol was approved by the local animal ethics committee.
(§2) The animals were fasted overnight prior to test substance administration. The test substance was administered orally by gavage on the morning of the study day. All test animals had blood collected during the test period in both EDTA (ethylenediaminetetraacetic acid) tubes and SST (Serum Separator Tubes) at 1, 3 and 6 hours after dosing. Blood was collected into EDTA tubes only at 1 and 3 hours by tail tip amputation. Volume of blood collected was between 0.5 and 1 mL at each of these collections. The final collection was by puncture of the abdominal vena cava under isoflurane general anesthesia. Final blood collection was targeted as follows: 1st EDTA #1—1.5 mL; 2nd SST—1.5 mL; 3rd EDTA #2—as much as possible.
Each animal from all groups underwent a full necropsy under the supervision of a board certified veterinary pathologist. The stomach of each rat was cut along the greater curvature, contents removed into a polypropylene (Falcon) tube, the mucosa rinsed with saline and any obvious ulcers or erosions were measured along the longest axis. This measurement was recorded for each ulcer or erosion observed in each stomach. The falcon tubes and their contents were frozen at −80° C. and shipped to Novokin on dry ice for analysis.
The aggregate length of all gastric ulcers found in a given animal was calculated. The mean aggregate ulcer length across animals in a group was calculated. This mean value was reported as the ulcer index for that group.
The ulcer index of each modified drug was compared with the ulcer index of its associated parent drug and the controls using analysis of variance and Duncan's multiple range test for pairwise comparisons. Statistical analysis was done using SAS® (SAS Institute Inc., Cary, N.C.).

Data set [2] can be described thus: Serum nitrate concentration (NO release) after oral dosing. Conditions: male Wistar rats, oral gavage, at 6 hours. The data set is classed as in vivo, rat. The protocol:
as §1, §2
EDTA samples were centrifuged, and the plasma portion was collected and frozen at −80° C. SST samples were incubated at 37° C. for approximately 45 minutes, centrifuged, and the serum was collected and frozen at −80° C. until analysis.

Data set [3] deals with cardiac tissue prostacyclin (PGI2) to thromboxane A2 (TXB2) ratio. The data set can be described thus: Cardiac tissue prostacyclin to thromboxane ratio. The data set is classed as in vivo, rat. Conditions: male Wistar rats; for PGI2/TXA2 ratio comparison (in words): cardiac tissue; for Cardiac Tissue PGI2/TXB2, Mean: oral gavage, heart removed 6 hours after dosing.
From the text: (§3) Myocardial infarction and ischemic events in high risk patients led one of the most popular COX-2 inhibitors to its demise (Bresalier et al., 2005). Non-selective NSAIDS may also cause similar problems due to their ability to inhibit COX-2. […] Adenosine diphosphate (ADP) generation is an indicator of myocardial infarction which has no connection with the arachidonic acid cascade (Borna et al., 2005). […] Long term NSAID use has been linked to kidney damage and hypertension (Zafirovska et al., 1993). […] This was associated with an increase in the urine the ratio of alanine-amino-peptidase (AAP) and creatinine.
as §1
All rats were euthanized by removal of the heart 6 hours after initial dosing, following final blood collections. Immediately after terminal blood collections were complete, the thorax was opened and the heart removed. The heart was cut in half longitudinally. Half of the heart was placed in formalin for histological examination. The other half was quickly rinsed in saline and then freeze-clamped (crushed between the jaws of a pair of modified tongs, cooled by liquid nitrogen). An entire kidney was freeze-clamped. The other kidney was left in situ for examination by the pathologist. Freeze-clamped tissues were wrapped in labeled aluminum foil and stored in liquid nitrogen until they could be transferred to a −80° C. freezer. Freeze-clamped tissues were shipped on dry ice to NOVOKIN for analysis.

Data set [4] deals with male Wistar rats. The data set can be described thus: Urine alanine aminopeptidase to creatinine ratio (proximal tubular kidney damage). Conditions: for AAP/Cr (urine alanine aminopeptidase to creatinine), Mean: oral gavage, urine collected for 6 hours. The data set is classed as in vivo, rat.
From the text: as §3, §1
(§4) All test animals, housed in metabolic cages, had urine collected over wet ice for 6 hours after dosing. Aliquots of the urine from each animal were collected to determine creatinine concentration. The remainder of the urine was centrifuged at 1000 g for 10 minutes. The supernatant was collected and mixed with analytical grade ethylene glycol at a rate of 0.4 mL ethylene glycol per 1 mL urine supernatant. The ethylene glycol/urine mixture was stored at −80° C. until analysis.

The test system of data set [5] is male Wistar rats. As to the kind of experiment: Urine N-acetylglucosaminidase to creatinine ratio (distal tubule toxicity). Conditions: oral gavage, urine collected for 6 hours. The data set is classed as in vivo, rat. The protocol: as §1, §4
Data set [6] in a line: Chemical stability (loss of diazeniumdiolate) in phosphate buffer. The data set is classed as physicochemical. The protocol:
They varied only in the nitrogen substituent of the amino acid, i.e. free amine (1), acetyl (2) and pivaloyl (3) groups. Their chemical stability was evaluated in phosphate buffer at different pH's over a 30 minute period (Table 11).

The nature of data set [7]: Enzymatic hydrolysis in liver microsomal preparations (LC-MS). The data set is classed as in vitro ADME. To be noted: for Time to complete hydrolysis (cleavage of the diazeniumdiolate): liver microsomal preparations. Here is the method: The sensitivity of the prodrug 3 towards enzymatic hydrolysis was evaluated by LC-MS. Liver and intestinal microsomal preparations were used. […] However, these rates were slower than the enzymatic hydrolysis rates determined for the conversion of 1→4 and 2→5 (complete hydrolysis observed in 10 and 30 minutes respectively in liver microsomal preparations).
(Liver microsomes are a subcellular fraction often used to study metabolism.)

Consider `COc1ccc2cc(C(C)C(=O)OCON=[N+]([O-])N(C)C)ccc2c1` (centres unmarked) [DMA-NO-NAP, dimethylamino-diazeniumdiolate-naproxen], for which, in the data set on male Wistar rats [1], the “Ulcer Indices, Mean” value is listed as 1.695 and the “Ulcerogenicity (in words)” value is on record as “somewhat less ulcerogenic”. Further, in data set [2], the “Serum Nitrate Concentrations, Mean” value is recorded as 768.000. Besides, in data set [3], the “PGI2/TXA2 ratio comparison (in words)” value is on record as “achieving statistical significance (p<0.05)” and the “Cardiac Tissue PGI2/TXB2, Mean” value came to 5.157. In addition, in the data set with male Wistar rats [4], the “AAP/Cr (urine alanine aminopeptidase to creatinine), Mean” value amounted to 132.412. Besides, the “Urine NAG/Cr values, Mean” value with male Wistar rats [5] was 20.403.

For the compound `COc1ccc2cc(C(C)C(=O)OC3CC(C(=O)OCON=[N+]([O-])N(C)C)N(C(C)=O)C3)ccc2c1` (centres unmarked) [Compound 2], the “Stability (loss of diazeniumdiolate), pH 2.5” value in data set [6] (30 min, pH 2.5) is given as “✓”. For the same compound, the “Stability (loss of diazeniumdiolate), pH 5.0” value in data set [6] (30 min, pH 5.0) is reported as “✓”. Besides, the “Chemical stability (in words)” value in data set [6] (pH 2.5-5.0, 30 minute period) is given as “stable”; in data set [6] (pH 7.0, 30 minute period), “much slower rate of decomposition”. For the same compound, the “Time to complete hydrolysis (cleavage of the diazeniumdiolate)” value in data set [7] stood at 30 min.

As to `COc1ccc2cc(C(C)C(=O)OC3CNC(C(=O)OCON=[N+]([O-])N(C)C)C3)ccc2c1` (centres unmarked) [Compound 1], the “Chemical stability (in words)” value in data set [6] (pH range 2.5-7.0, 30 minute period) is listed as “underwent rapid degradation”. Moreover, the “Time to complete hydrolysis (cleavage of the diazeniumdiolate)” value in data set [7] was 10 min.

As to `CS(=O)(=O)c1ccc(C2=C(c3ccccc3)C(=O)OC2)cc1` [ROF, Rofecoxib], in the data set with male Wistar rats [1], the “Ulcer Indices, Mean” value amounted to 0.000 and the “Ulcerogenicity (in words)” value is reported as “not significantly different from vehicle”. Also, in data set [2], the “Serum Nitrate Concentrations, Mean” value worked out at 55.818. Further, in data set [3], the “PGI2/TXA2 ratio comparison (in words)” value is on record as “lower ratios than vehicle” and the “Cardiac Tissue PGI2/TXB2, Mean” value worked out at 2.765. Besides, in the data set with male Wistar rats [4], the “Urine AAP/creatinine ratio change (in words)” value is “did cause an increase” and the “AAP/Cr (urine alanine aminopeptidase to creatinine), Mean” value is listed as 538.367. The “Urine NAG/Cr values, Mean” value in the data set on male Wistar rats [5] worked out at 24.176.

As for `COc1ccc2cc(C(C)C(=O)OCOC(=O)CCC(NC(C)=O)C(=O)OCOC(=O)C(C)c3ccc4cc(OC)ccc4c3)ccc2c1` (centres unmarked) [Compound 9], the “Time to complete hydrolysis (initial cleavage of both esters)” value in data set [7] (liver microsomes) worked out at 30 min.
